Patent US10478492B2, “Modifications of therapeutic agents for enhanced delivery to target sites” (Partikula LLC, priority 2016, dated 2019)
Read-outs that look alike come from different tables or passages of the source.

Experiments:
[1] = molecular target: monocarboxylate transporters (MCT); settings: competitive inhibitor of lactate transport in tumors; read-out: Ki as inhibitor of lactate transport; cited from earlier work
[2] = Stability in cell culture media containing 10% FBS by HPLC; format: in vitro ADME
Experimental: Stability of ADCA in cell culture media containing 10% FBS was examined by looking at the HPLC chromatograms and area under the peaks. For the study, […] solution of ADCA was prepared by mixing 10 μL of 100 mM DMSO stock solution with 1.99 mL of cell media. Turbidity was observed after mixing, however no precipitate was observed. The samples were then stored at 37° C., 150 μL aliquots were analyzed by HPLC (the sample was mixed before taking an aliquot, however no visible precipitate was observed even before mixing). Alanyl-DCA was detected at 205 nm with a retention time of 9.7 min on HPLC.
Stability of Mito-ADCA in cell culture media containing 10% FBS was monitored by examining the HPLC chromatograms and area under the peaks. Scheme below expected degradation products:
For this study, 500 μM solution of Mito-ADCA (MAD) was prepared by mixing 10 μL of 100 mM DMSO stock solution with 1.99 mL of cell culture media (RPMI 1640 medium, supplemented with 10% FBS, 1% Pen/strep). Turbidity was observed after mixing, however no precipitate was observed. The samples were then stored at 37° C., 150 μL aliquots were analyzed by HPLC (the sample was mixed before taking an aliquot, and no visible precipitate was observed even before mixing).
Using HPLC, MitoADCA (MAD), loss of one alanyl-DCA (MAD-ADCA), loss of three alanyl-DCA (i.e., TPP-Tris-OH) and the alanyl-DCA (ADCA) were tracked. MAD was detected and monitored at 268 nm with retention time of 18.08 min, Mito-A-DCA missing 1 alanyl DCA at 268 nm with retention time of 17.13 min, total amount of MAD and Mito-A-DCA missing 1 alanyl DCA at 268 nm, TPP-Tris-OH at 268 nm with retention time of 14.6 min, and alanyl DCA at 205 nm with retention time of 9.5 min. The MAD half-life in cell media at 500 μM was measured as ˜20 h. TPP-Tris-OH starts appearing in HPLC only after 10 h in media.

PDHK2 = PDHK2 (Homo sapiens, UniProt Q15119); settings: cited from earlier work
[3] = system: PDH activity in primary rat hepatocytes; settings: read-out: EC50 for increase of PDH activity; cited from earlier work
A549 cells = experiment: Cytotoxicity in A549 cells; format: cell-based
Description: (§1) Next the cytotoxicity ability of PDCA and PDCA-NPs were studied in A549 and HCT16 cells to evaluate the ability of these new formulations with respect to NaDCA.
(§2) Next the cytotoxicity ability of PalmMetformin and NPs were studied in A549 and HCT16 cells to evaluate the ability of these new formulations with respect to Meformin.

HCT116 cells = experiment: Cytotoxicity in HCT116 cells; format: cell-based
Description: as §1, §2

[4] = Stability in water by HPLC; format: physicochemical; settings: for stability in water: 2 days
Experimental: (§3) In a further study, Mito-ADCA stability testing was carried out in rat serum. 0.5 mg/mL solutions 18% rat serum were prepared and analyzed by HPLC. Mito-ADCA was detected at 268 nm with a retention time of 18.08 min over time of 4500 min in 18% rat serum. […] After 2 d a peak of TPP-Tris-OH was observed. The amount of TPP-Tris-OH corresponded to 76% of the original.
(§4) Stability of TPP-bis-ADCA in rat serum and water was carried out using 500 μg/mL solution in 18% rat serum. The solution was analyzed by HPLC for two days.
(§5) Hydrolytic stability of TPP-ibDCA in serum, and in water was studied. A 500 μg/mL solution of TPP-ib-DCA in water, and in 18% rat serum was analyzed by HPLC using the method for Mito-ADCA/DCA detection described above. […] In water, hydrolysis of TPP-ib-DCA stops halfway likely due to the acidification of the solution.

[5] = Stability in 18% rat serum by HPLC; format: in vitro ADME
Experimental: as §3, §4, §5

[6] = A549 cells, 24 + 48 h, read-out: IC50 (24 + 48 h)
[7] = A549 cells, 72 h, read-out: IC50 (72 h)
[8] = 500 μg/mL in 18% rat serum, two days

N#CC(=Cc1ccc(O)cc1)C(=O)O [ACCA, α-cyano-4-hydroxy cinnamic acid]
Ki [1]: 500 µM

O=C(O)CCNC(=O)C(Cl)Cl [ADCA, β-alanyl-DCA]
change in ADCA concentration (total area of absorbance peak) ([2]; 1.5 mM, cell culture media with 10% FBS, 37° C., five days): virtually no change in ADCA concentration over five days

CN(C)C(=O)c1ccc(S(=O)(=O)c2ccc(NC(=O)[C@@](C)(O)C(F)(F)F)c(Cl)c2)cc1 [AZD7545, 4-[3-chloro-4-[[(2R)-3,3,3-trifluoro-2-hydroxy-2-methylpropanoyl]amino]phenyl]sulfonyl-N,N-dimethylbenzamide]
IC50 (PDHK2): 0.0064 µM
EC50 [3]: 0.105 µM

CN(C)C(=N)N=C(N)N [Meformin, Metformin, reference compound]
IC50 (A549 cells; Homo sapiens, A549 cells, 24 + 48 h, Table 4, read-out: IC50 (24 + 48 h)): > 500 µM
IC50 (A549 cells; Homo sapiens, A549 cells, 72 h, Table 4, read-out: IC50 (72 h)): > 500 µM
IC50 (A549 cells; Homo sapiens, A549 cells, read-out: IC50 values): > 500 µM
IC50 (HCT116 cells; Homo sapiens, HCT-116, 24 + 48 h, Table 4, read-out: IC50 (24 + 48 h)): > 500 µM
IC50 (HCT116 cells; Homo sapiens, HCT-116, 72 h, Table 4, read-out: IC50 (72 h)): > 500 µM
IC50 (HCT116 cells; Homo sapiens, HCT-116, read-out: IC50 values): > 500 µM

O=C(CCCCC[P+](c1ccccc1)(c1ccccc1)c1ccccc1)NC(COC(=O)CCNC(=O)C(Cl)Cl)(COC(=O)CCNC(=O)C(Cl)Cl)COC(=O)CCNC(=O)C(Cl)Cl.[Br-] [Mito-ADCA, TPP-Tris-β-alanino-DCA]
half-life at 500 μM ([2]; cell culture medium with 10% FBS (no cells), 500 μM, RPMI 1640 with 10% FBS, 37° C.): ~20 h
species released by hydrolysis ([2]; cell media with 10% FBS): Alanyl-DCA is released as a result of hydrolysis instead of DCA
stability in water [4]: stable in water for 2 days without signs of decomposition
half-life at 0.5 mg/mL ([5]; 0.5 mg/mL in 18% rat serum): ~7 h
species released by hydrolysis ([5]; 18% rat serum): Alanyl-DCA is released as a result of hydrolysis instead of DCA

O=C([O-])C(Cl)Cl.[Na+] [NaDCA, reference compound]
IC50 (A549 cells; [6]): > 20000 µM
IC50 (A549 cells; [7]): > 20000 µM
IC50 (A549 cells; cell line not stated in the sentence (A549 and HCT16 cells studied), read-out: IC50 value): ≥ 20000 µM
IC50 (HCT116 cells; 24 + 48 h, read-out: IC50 (24 + 48 h)): > 20000 µM
IC50 (HCT116 cells; 72 h, read-out: IC50 (72 h)): > 20000 µM

CCCCCCCCCCCCCCCC(=O)NC(COC(=O)CCNC(=O)C(Cl)Cl)(COC(=O)CCNC(=O)C(Cl)Cl)COC(=O)CCNC(=O)C(Cl)Cl [PADCA, Palm-Tris-β-alanino-DCA]
IC50 (A549 cells; Homo sapiens, A549 cells, free PADCA, read-out: IC50 value): ~400 µM

CCCCCCCCCCCCCCCC(=O)NC(COC(=O)C(Cl)Cl)(COC(=O)C(Cl)Cl)COC(=O)C(Cl)Cl [PDCA, Palmitic-Tris-DCA]
IC50 (A549 cells; [6]): 204 µM
IC50 (A549 cells; [7]): 175 µM
IC50 (A549 cells; cell line not stated in the sentence (values match A549 of Table 2), read-out: IC50 value): ~204 µM

O=C(NCCCCC(NC(=O)C(Cl)Cl)C(=O)NCCCC[P+](c1ccccc1)(c1ccccc1)c1ccccc1)C(Cl)Cl (stereo not shown) [TPP-bis-ADCA]
stability in water [4]: stable in both serum and water
decomposition in serum ([5]; 500 μg/mL in 18% rat serum, after 2 days): 2%
detection of DCA [5, 8]: no DCA was detected
stability in serum [5, 8]: stable in both serum and water

CC(C)(OC(=O)C(Cl)Cl)C(=O)NCCCC[P+](c1ccccc1)(c1ccccc1)c1ccccc1.[Br-] [TPP-ib-DCA, (4-(2-(2,2-dichloroacetoxy)-2-methylpropanamido)butyl) triphenylphosphonium bromide]
hydrolysis in water ([4]; 500 μg/mL in water): stops halfway
appearance of free DCA ([5]; 500 μg/mL in 18% rat serum): delayed relative to the disappearance of the ester
hydrolysis in serum compared with MitoDCA ([5]; 500 μg/mL in 18% rat serum): slower than MitoDCA
